Assay [1] deals with Integrase (Human immunodeficiency virus 1). The assay is described as follows: Inhibitory concentration against human immuno deficiency virus type 1 integrase (Strand Transfer).
Assay [2] shares this target. The assay is described as follows: Inhibitory concentration against human immuno deficiency virus type 1 integrase (3'-processing).

Structures are written as SMILES. pIC50: −log10 of the molar value.

The source of these data is BindingDB's records for doi:10.1021/jm0496077 (University of Southern California, 2005).

`COc1ccc(/C=C2\SC(=S)N(CCC(=O)Nc3cccc(C(=O)O)c3)C2=O)cc1`: the pIC50 in assay [1] and in assay [2] was less than 4.00 in each case.

Regarding `COc1cc(/C=C2/SC(=S)N(CCC(=O)Nc3ccc(C(=O)O)cc3)C2=O)cc(OC)c1OC`, the pIC50 (usually the IC50 on a negative log10 scale, so that one unit is a factor of ten) in assay [1] was 4.07; in assay [2], 4.01.

Take `CCOc1ccc(/C=C2\SC(=S)N(CCC(=O)Nc3cccc(C(=O)O)c3)C2=O)cc1`: the pIC50 in assay [1] was less than 4.00; in assay [2] it was 4.03.

Turning to `COc1cc(C(=O)Nc2ccc(O)c(C(=O)O)c2)cc(OC)c1OC` [2-Hydroxy-5-(3,4,5-trimethoxy-benzoylamino)-benzoic acid], the pIC50 in assay [1] and in assay [2] was less than 4.00 throughout.

Consider `O=C(CCN1C(=O)/C(=C/c2cccs2)SC1=S)Nc1ccc(O)c(C(=O)O)c1` [2-Hydroxy-5-(3-{4-oxo-5-[1-thiophen-2-yl-meth-(Z)-ylidene]-2-thioxo-thiazolidin-3-yl}-propionylamino)-benzoic acid], for which the pIC50 in assay [1] and in assay [2] was 4.42 in each case.

Consider `CC(/C=C1\SC(=S)N(CCC(=O)Nc2ccc(O)c(C(=O)O)c2)C1=O)=C\c1ccccc1` [2-Hydroxy-5-(3-{5-[(E)-2-methyl-3-phenyl-prop-2-en-(Z)-ylidene]-4-oxo-2-thioxo-thiazolidin-3-yl}-propionylamino)-benzoic acid], for which the values for the pIC50 in assay [1] and in assay [2] were 4.64 and 4.44, respectively.

As to `O=C(CCCN1C(=O)/C(=C\c2cccs2)SC1=S)Nc1ccc(O)c(C(=O)O)c1` [2-Hydroxy-5-(4-{4-oxo-5-[1-thiophen-2-yl-meth-(Z)-ylidene]-2-thioxo-thiazolidin-3-yl}-butyrylamino)-benzoic acid], the figures for the pIC50 in assay [1] and in assay [2] were 4.46 and 4.36, respectively.

On to `O=C(CN1C(=O)/C(=C/c2ccccc2Cl)SC1=S)Nc1ccc([N+](=O)[O-])cc1O` [2-{5-[1-(2-Chloro-phenyl)-meth-(Z)-ylidene]-4-oxo-2-thioxo-thiazolidin-3-yl}-N-(2-hydroxy-4-nitro-phenyl)-acetamide], for which the pIC50 in assay [1] and in assay [2] was less than 4.00 each time.

Take `O=C(CN1C(=O)/C(=C/c2ccccc2Cl)SC1=S)Nc1cc([N+](=O)[O-])ccc1O` [2-{5-[1-(2-Chloro-phenyl)-meth-(Z)-ylidene]-4-oxo-2-thioxo-thiazolidin-3-yl}-N-(2-hydroxy-5-nitro-phenyl)-acetamide]: the pIC50 in assay [1] was 4.74; in assay [2], 4.70.

As to `Cc1ccc(/C=C2/SC(=S)N(CC(=O)Nc3cccc(C(=O)O)c3)C2=O)cc1` [3-(2-{4-Oxo-2-thioxo-5-[1-p-tolyl-meth-(Z)-ylidene]-thiazolidin-3-yl}-acetylamino)-benzoic acid], the pIC50 in assay [1] was less than 4.00; in assay [2], 4.01.

In the case of `CCc1ccc(/C=C2/SC(=S)N(CC(=O)Nc3cccc(C(=O)O)c3)C2=O)cc1` [3-(2-{5-[1-(4-Ethyl-phenyl)-meth-(Z)-ylidene]-4-oxo-2-thioxo-thiazolidin-3-yl}-acetylamino)-benzoic acid], the pIC50 in assay [1] and in assay [2] was less than 4.00 in each case.

With `Cc1ccc(/C=C2\SC(=S)N(CCC(=O)Nc3cccc(C(=O)O)c3)C2=O)cc1` [3-(3-{4-Oxo-2-thioxo-5-[1-p-tolyl-meth-(Z)-ylidene]-thiazolidin-3-yl}-propionylamino)-benzoic acid], the pIC50 in assay [1] is less than 4.00; in assay [2] it was 4.00.

For `O=C1/C(=C/c2c(NCCO)nc3ccccn3c2=O)SC(=S)N1Cc1ccco1` [3-[3-Furan-2-ylmethyl-4-oxo-2-thioxo-thiazolidin-(5E)-ylidenemethyl]-2-(2-hydroxy-ethylamino)-pyrido[1,2-a]pyrimidin-4-one], the figures for the pIC50 in assay [1] and in assay [2] were 4.00 and less than 4.00, respectively.

On to `Cc1ccc(/C=C2\SC(=S)N(CCC(=O)Nc3ccc(S(=O)(=O)Nc4nccs4)cc3)C2=O)cc1` [3-{4-Oxo-2-thioxo-5-[1-p-tolyl-meth-(Z)-ylidene]-thiazolidin-3-yl}-N-[4-(thiazol-2-ylsulfamoyl)-phenyl]-propionamide], for which the pIC50 in assay [1] was 4.36; in assay [2], 4.08.

`O=C(CCN1C(=O)/C(=C/c2ccccc2Cl)SC1=S)Nc1ccc([N+](=O)[O-])cc1` [3-{5-[1-(2-Chloro-phenyl)-meth-(Z)-ylidene]-4-oxo-2-thioxo-thiazolidin-3-yl}-N-(4-nitro-phenyl)-propionamide]: the pIC50 in assay [1] and in assay [2] was less than 4.00 throughout.

Regarding `CCOC(=O)N1CCN(C(=O)CCN2C(=O)/C(=C/c3ccc(OC)c(OC)c3)SC2=S)CC1` [4-(3-{5-[1-(3,4-Dimethoxy-phenyl)-meth-(Z)-ylidene]-4-oxo-2-thioxo-thiazolidin-3-yl}-propionyl)-piperazine-1-carboxylic acid ethyl ester], the pIC50 in assay [1] and in assay [2] was less than 4.00 throughout.

For `COc1ccc(/C=C2/SC(=S)N(CCC(=O)Nc3ccc(C(=O)O)c(O)c3)C2=O)cc1OC` [4-(3-{5-[1-(3,4-Dimethoxy-phenyl)-meth-(Z)-ylidene]-4-oxo-2-thioxo-thiazolidin-3-yl}-propionylamino)-2-hydroxy-benzoic acid], the pIC50 is 4.77 in assay [1] and 4.21 in assay [2].

In the case of `O=C(CCN1C(=O)/C(=C/c2ccc3c(c2)OCO3)SC1=S)Nc1ccc(C(=O)O)c(O)c1` [4-(3-{5-[1-Benzo[1,3]dioxol-5-yl-meth-(Z)-ylidene]-4-oxo-2-thioxo-thiazolidin-3-yl}-propionylamino)-2-hydroxy-benzoic acid], the pIC50 is 4.64 in assay [1] and 4.48 in assay [2].

In the case of `O=C(CN1C(=O)/C(=C2\SC(=S)N(CC(=O)Nc3ccc(C(=O)O)cc3)C2=O)SC1=S)Nc1ccc(C(=O)O)cc1` [4-{5-[3-(4-carboxyphenylcarbamoylmethyl)-4-oxo-2-thioxo-1,3-thiazolan-5-yliden]-4-oxo-2-thioxo-1,3-thiazolan-3-ylmethylcarboxamido}benzoic acid], the pIC50 in assay [1] is 4.12; in assay [2], 4.23.

Regarding `O=C(NC(=S)Nc1ccc(O)c(C(=O)O)c1)c1ccccc1` [5-(3-Benzoyl-thioureido)-2-hydroxy-benzoic acid], the pIC50 in assay [1] and in assay [2] was less than 4.00 each time.

As for `CCc1ccc(/C=C2\SC(=S)N(CCC(=O)Nc3ccc(O)c(C(=O)O)c3)C2=O)cc1` [5-(3-{5-[1-(4-Ethyl-phenyl)-meth-(Z)-ylidene]-4-oxo-2-thioxo-thiazolidin-3-yl}-propionylamino)-2-hydroxy-benzoic acid], the pIC50 in assay [1] was 4.96; in assay [2] it was 4.82.

Take `O=C(CCN1C(=O)/C(=C/c2ccc3c(c2)OCO3)SC1=S)Nc1ccc(O)c(C(=O)O)c1` [5-(3-{5-[1-Benzo[1,3]dioxol-5-yl-meth-(Z)-ylidene]-4-oxo-2-thioxo-thiazolidin-3-yl}-propionylamino)-2-hydroxy-benzoic acid]: the pIC50 in assay [1] is 4.77; in assay [2] it was 4.82.

In the case of `O=C1/C(=C/c2ccc(O)cc2O)SC(=S)N1c1ccccc1` [5-[1-(2,4-Dihydroxy-phenyl)-meth-(Z)-ylidene]-3-phenyl-2-thioxo-thiazolidin-4-one], the pIC50 in assay [1] and in assay [2] was less than 4.00 in each case.

Consider `O=C(O)c1ccc(S(=O)(=O)c2ccc3c(c2)C(=O)N(c2ccc(O)c(C(=O)O)c2)C3=O)cc1` [5-[5-(4-Carboxy-benzenesulfonyl)-1,3-dioxo-1,3-dihydro-isoindol-2-yl]-2-hydroxy-benzoic acid], for which the pIC50 is 4.36 in assay [1] and 4.18 in assay [2].
